Measured values published in PubChem BioAssay AID220 (DTP/NCI, 2004).
Results filed as inconclusive are left out.

Test system: CD8F1 mice, subcutaneous mammary adenocarcinoma, T/C%
Assay: NCI In Vivo Anticancer Drug Screen. Data for tumor model Mammary Adenocarcinoma CD8F1 (subcutaneous) in CD8F1
Conditions: higher = larger tumour
Summary of the method: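 Mice carrying transplanted tumors received test compound, and survival or tumor size was recorded. Each value is the treated-group measurement divided by the corresponding measurement in vehicle-dosed controls.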

[1] = endpoint: median tumor weight change, dose: 62.5 mg/kg/injection, schedule: Q01DX001 (ip), vehicle: saline with Tween-80
[2] = endpoint: median tumor weight change, dose: 125.0 mg/kg/injection, schedule: Q01DX001 (ip), vehicle: saline with Tween-80
[3] = endpoint: median tumor weight change, dose: 250.0 mg/kg/injection, schedule: Q01DX001 (ip), vehicle: saline with Tween-80
[4] = endpoint: median tumor weight (est.), dose: 12.5 mg/kg/injection, schedule: Q07DX005 (ip), vehicle: Klucel (hydroxypropylcellulose) (HPC)
[5] = endpoint: median tumor weight (est.), dose: 50.0 mg/kg/injection, schedule: Q07DX005 (ip), vehicle: Klucel (hydroxypropylcellulose) (HPC)
[6] = endpoint: median tumor weight (est.), dose: 100.0 mg/kg/injection, schedule: Q07DX005 (ip), vehicle: Klucel (hydroxypropylcellulose) (HPC)
[7] = endpoint: median tumor weight (est.), dose: 200.0 mg/kg/injection, schedule: Q07DX005 (ip), vehicle: Klucel (hydroxypropylcellulose) (HPC)

N#Cc1cn(C2OC(CO)C(O)C2O)c2ncnc(N)c12 (stereo not given)
T/C (endpoint: median tumor weight (est.), dose: 0.12 mg/kg/injection, schedule: Q07DX005 (ip), vehicle: saline): 86 % of control | T/C (endpoint: median tumor weight (est.), dose: 0.25 mg/kg/injection, schedule: Q07DX005 (ip), vehicle: saline): 53 % of control | T/C (endpoint: median tumor weight (est.), dose: 0.5 mg/kg/injection, schedule: Q07DX005 (ip), vehicle: saline): 55 % of control | T/C (endpoint: median tumor weight (est.), dose: 1.0 mg/kg/injection, schedule: Q07DX005 (ip), vehicle: saline): 63 % of control

CCC1(O)CC2CN(CCc3c([nH]c4ccccc34)C(C(=O)OC)(c3cc4c(cc3OC)N(C)C3C(O)(C(=O)NCCSSCCNC(=O)C5(O)C(O)C6(CC)C=CCN7CCC8(c9cc(C%10(C(=O)OC)CC%11CN(CCc%12c%10[nH]c%10ccccc%12%10)CC(O)(CC)C%11)c(OC)cc9N(C)C58)C76)C(O)C5(CC)C=CCN6CCC43C65)C2)C1 (stereo not given)
T/C (endpoint: median tumor weight change, dose: 1.9 mg/kg/injection, schedule: Q01DX001 (ip), vehicle: saline): 45 % of control

Nc1ccc(S(=O)(=O)c2ccc(N)cc2)cc1
T/C (endpoint: median tumor weight change, dose: 31.25 mg/kg/injection, schedule: Q01DX001 (ip), vehicle: saline with Tween-80): 106 % of control | T/C [1]: 92 % of control | T/C [2]: 87 % of control | T/C [3]: 88 % of control | T/C (endpoint: median tumor weight change, dose: 500.0 mg/kg/injection, schedule: Q01DX001 (ip), vehicle: saline with Tween-80): 80 % of control

C/C(=N\NC(N)=O)c1cccc(/C(C)=N/NC(N)=O)n1
T/C [1]: 64 % of control | T/C [2]: 53 % of control | T/C [3]: 48 % of control

CCN(CC)CCOCCO
T/C (endpoint: median tumor weight change, dose: 62.5 mg/kg/injection, schedule: Q01DX001 (ip), vehicle: saline): 151 % of control | T/C (endpoint: median tumor weight change, dose: 125.0 mg/kg/injection, schedule: Q01DX001 (ip), vehicle: saline): 172 % of control | T/C (endpoint: median tumor weight change, dose: 250.0 mg/kg/injection, schedule: Q01DX001 (ip), vehicle: saline): 65 % of control

CC(=O)Nc1ccc(O)c(O)c1
T/C (endpoint: median tumor weight (est.), dose: 25.0 mg/kg/injection, schedule: Q07DX005 (ip), vehicle: saline with Tween-80): 107 % of control | T/C (endpoint: median tumor weight (est.), dose: 50.0 mg/kg/injection, schedule: Q07DX005 (ip), vehicle: saline with Tween-80): 81 % of control | T/C (endpoint: median tumor weight (est.), dose: 100.0 mg/kg/injection, schedule: Q07DX005 (ip), vehicle: saline with Tween-80): 79 % of control | T/C (endpoint: median tumor weight (est.), dose: 200.0 mg/kg/injection, schedule: Q07DX005 (ip), vehicle: saline with Tween-80): 76 % of control | T/C (endpoint: median tumor weight (est.), dose: 400.0 mg/kg/injection, schedule: Q07DX005 (ip), vehicle: saline with Tween-80): 114 % of control | T/C (endpoint: median tumor weight (est.), dose: 800.0 mg/kg/injection, schedule: Q07DX005 (ip), vehicle: saline with Tween-80): 159 % of control

CC1(C)COCN1COCCOCN1COCC1(C)C
T/C (endpoint: median tumor weight change, dose: 25.0 mg/kg/injection, schedule: Q01DX001 (ip), vehicle: saline): 100 % of control | T/C (endpoint: median tumor weight change, dose: 50.0 mg/kg/injection, schedule: Q01DX001 (ip), vehicle: saline): 109 % of control | T/C (endpoint: median tumor weight change, dose: 100.0 mg/kg/injection, schedule: Q01DX001 (ip), vehicle: saline): 95 % of control

CNc1nc(NC)nc(NC)n1
T/C [4]: 83 % of control | T/C (endpoint: median tumor weight (est.), dose: 12.5 mg/kg/injection, schedule: Q07DX006 (ip), vehicle: Klucel (hydroxypropylcellulose) (HPC)): 86 % of control | T/C (endpoint: median tumor weight (est.), dose: 25.0 mg/kg/injection, schedule: Q07DX005 (ip), vehicle: Klucel (hydroxypropylcellulose) (HPC)): 163 % of control | T/C (endpoint: median tumor weight (est.), dose: 25.0 mg/kg/injection, schedule: Q07DX006 (ip), vehicle: Klucel (hydroxypropylcellulose) (HPC)): 72 % of control | T/C [5]: 107 % of control | T/C (endpoint: median tumor weight (est.), dose: 50.0 mg/kg/injection, schedule: Q07DX006 (ip), vehicle: Klucel (hydroxypropylcellulose) (HPC)): 203 % of control | T/C [6]: 93 % of control | T/C (endpoint: median tumor weight (est.), dose: 100.0 mg/kg/injection, schedule: Q07DX006 (ip), vehicle: Klucel (hydroxypropylcellulose) (HPC)): 294 % of control | T/C [7]: 174 % of control | T/C (endpoint: median tumor weight (est.), dose: 200.0 mg/kg/injection, schedule: Q07DX006 (ip), vehicle: Klucel (hydroxypropylcellulose) (HPC)): 117 % of control | T/C (endpoint: median tumor weight (est.), dose: 400.0 mg/kg/injection, schedule: Q07DX005 (ip), vehicle: Klucel (hydroxypropylcellulose) (HPC)): 65 % of control

COc1c(CNC(=O)CCl)cc2[nH]c(C)cc2c1CNC(=O)CCl
T/C (endpoint: median tumor weight (est.), dose: 6.25 mg/kg/injection, schedule: Q07DX005 (ip), vehicle: Klucel (hydroxypropylcellulose) (HPC)): 92 % of control | T/C [4]: 67 % of control | T/C [5]: 97 % of control | T/C [6]: 55 % of control | T/C [7]: 57 % of control | T/C (endpoint: median tumor weight change, dose: 125.0 mg/kg/injection, schedule: Q01DX001 (ip), vehicle: Klucel (hydroxypropylcellulose) (HPC)): 106 % of control | T/C (endpoint: median tumor weight change, dose: 250.0 mg/kg/injection, schedule: Q01DX001 (ip), vehicle: Klucel (hydroxypropylcellulose) (HPC)): 108 % of control

O=C(Oc1ccccc1)c1cc(O)c(O)c(O)c1
T/C (endpoint: median tumor weight change, dose: 150.0 mg/kg/injection, schedule: Q01DX001 (ip), vehicle: suspension in saline): 98 % of control | T/C (endpoint: median tumor weight change, dose: 300.0 mg/kg/injection, schedule: Q01DX001 (ip), vehicle: suspension in saline): 111 % of control
